Source: patent US20240059695A1, “SUBSTITUTED IMIDAZO[1,5-b]PYRIDAZINE COMPOUNDS AS KINASE INHIBITORS AND USE THEREOF” (IMPACT THERAPEUTICS (SHANGHAI), INC, priority 2020, published 2024)
Like-named read-outs stand apart in the source and are kept apart here.

What was measured:
[1] = Pharmacokinetics following single oral administration to mice; type: in vivo; conditions: mouse, CD-1 (ICR) mice, gavage 10 mg/kg, 0.5% methylcellulose/water suspension, plasma
Experimental: The compound of the present invention was formulated into a 0.5% methylcellulose/water uniform suspension, and was administered to CD-1 (ICR) mice by gavage at 10 mg/kg. Plasma samples were collected at 8 time points of 0.250, 0.500, 1.00, 2.00, 4.00, 6.00, 8.00 and 24.0 hours post-dose. Concentrations of the compound were determined by LC-MS/MS method.

ATR/ATRIP enzyme = biological target: T1, ATR/ATRIP enzyme (Homo sapiens, UniProt Q13535); assay: ATR enzyme activity experiment (HTRF); type: biochemical; conditions: p53 substrate, 30 min room temperature, read-out: IC50 (nM), inhibitory effect on ATR kinase activity
T1 construct: purchased Eurofins 14-953
T1 sequence (Q13535 whole entry): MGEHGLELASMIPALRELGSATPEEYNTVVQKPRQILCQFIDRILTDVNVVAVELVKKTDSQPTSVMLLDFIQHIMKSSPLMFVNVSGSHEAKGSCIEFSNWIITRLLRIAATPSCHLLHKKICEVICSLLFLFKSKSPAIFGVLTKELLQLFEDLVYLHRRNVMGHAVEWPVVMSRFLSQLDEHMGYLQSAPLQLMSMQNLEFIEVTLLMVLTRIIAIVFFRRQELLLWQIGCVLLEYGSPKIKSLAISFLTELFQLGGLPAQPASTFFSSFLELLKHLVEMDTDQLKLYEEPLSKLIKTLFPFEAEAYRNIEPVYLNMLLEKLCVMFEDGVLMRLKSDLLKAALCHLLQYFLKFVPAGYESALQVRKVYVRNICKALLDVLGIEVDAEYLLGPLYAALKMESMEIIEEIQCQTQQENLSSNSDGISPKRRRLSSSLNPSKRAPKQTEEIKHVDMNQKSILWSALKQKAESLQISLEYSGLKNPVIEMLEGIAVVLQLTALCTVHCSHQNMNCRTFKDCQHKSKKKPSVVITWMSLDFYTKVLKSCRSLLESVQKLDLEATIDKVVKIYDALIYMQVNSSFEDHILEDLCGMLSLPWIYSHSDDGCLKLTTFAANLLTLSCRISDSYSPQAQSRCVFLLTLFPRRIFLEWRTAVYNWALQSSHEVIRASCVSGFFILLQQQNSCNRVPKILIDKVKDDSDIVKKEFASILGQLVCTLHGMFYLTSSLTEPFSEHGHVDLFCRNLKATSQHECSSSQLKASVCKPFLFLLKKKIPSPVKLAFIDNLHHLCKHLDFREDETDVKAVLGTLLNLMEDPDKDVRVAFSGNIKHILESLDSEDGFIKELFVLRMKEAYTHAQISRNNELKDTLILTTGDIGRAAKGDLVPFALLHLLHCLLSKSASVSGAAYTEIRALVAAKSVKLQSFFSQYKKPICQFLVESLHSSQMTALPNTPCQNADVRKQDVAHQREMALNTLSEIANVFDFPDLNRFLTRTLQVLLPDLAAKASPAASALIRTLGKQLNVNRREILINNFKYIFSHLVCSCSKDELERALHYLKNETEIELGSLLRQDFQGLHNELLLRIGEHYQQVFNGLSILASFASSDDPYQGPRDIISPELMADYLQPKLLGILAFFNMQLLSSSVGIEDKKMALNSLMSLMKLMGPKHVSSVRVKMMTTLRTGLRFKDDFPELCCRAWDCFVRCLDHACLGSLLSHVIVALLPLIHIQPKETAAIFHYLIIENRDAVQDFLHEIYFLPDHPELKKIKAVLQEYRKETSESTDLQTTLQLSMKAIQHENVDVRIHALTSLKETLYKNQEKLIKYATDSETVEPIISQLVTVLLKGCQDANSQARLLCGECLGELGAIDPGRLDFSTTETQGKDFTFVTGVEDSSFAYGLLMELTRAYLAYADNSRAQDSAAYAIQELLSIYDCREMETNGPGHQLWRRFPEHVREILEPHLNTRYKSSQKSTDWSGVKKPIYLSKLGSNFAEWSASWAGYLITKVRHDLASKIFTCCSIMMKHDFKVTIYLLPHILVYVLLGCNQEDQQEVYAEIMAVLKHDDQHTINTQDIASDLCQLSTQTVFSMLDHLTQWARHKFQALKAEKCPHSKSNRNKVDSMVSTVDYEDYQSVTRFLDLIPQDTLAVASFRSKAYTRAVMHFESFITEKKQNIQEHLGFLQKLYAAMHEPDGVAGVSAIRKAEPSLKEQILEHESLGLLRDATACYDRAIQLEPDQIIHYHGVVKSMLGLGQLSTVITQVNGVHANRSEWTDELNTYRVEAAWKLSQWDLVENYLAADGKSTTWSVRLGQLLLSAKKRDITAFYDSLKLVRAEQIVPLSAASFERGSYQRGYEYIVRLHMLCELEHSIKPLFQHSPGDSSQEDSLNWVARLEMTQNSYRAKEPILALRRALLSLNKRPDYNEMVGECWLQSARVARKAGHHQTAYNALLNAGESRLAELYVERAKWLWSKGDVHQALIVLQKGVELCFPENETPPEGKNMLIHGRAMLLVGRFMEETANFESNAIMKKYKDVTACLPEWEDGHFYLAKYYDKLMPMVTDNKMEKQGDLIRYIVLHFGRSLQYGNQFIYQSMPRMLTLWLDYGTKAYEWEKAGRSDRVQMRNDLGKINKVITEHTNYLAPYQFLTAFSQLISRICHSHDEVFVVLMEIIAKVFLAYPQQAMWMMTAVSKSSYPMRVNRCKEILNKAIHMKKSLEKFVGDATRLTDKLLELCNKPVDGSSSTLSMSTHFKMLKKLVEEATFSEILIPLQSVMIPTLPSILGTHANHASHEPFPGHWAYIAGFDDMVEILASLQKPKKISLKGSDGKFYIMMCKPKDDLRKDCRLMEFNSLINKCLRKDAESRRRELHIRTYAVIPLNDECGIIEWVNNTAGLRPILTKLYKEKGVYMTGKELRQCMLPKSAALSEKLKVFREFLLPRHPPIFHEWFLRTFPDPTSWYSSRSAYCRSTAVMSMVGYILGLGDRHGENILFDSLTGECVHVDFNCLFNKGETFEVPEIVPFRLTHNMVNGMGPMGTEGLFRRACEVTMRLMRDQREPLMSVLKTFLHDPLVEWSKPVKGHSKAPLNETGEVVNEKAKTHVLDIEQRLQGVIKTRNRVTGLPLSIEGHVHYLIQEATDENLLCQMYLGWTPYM
T1 sequence (Q8WXE1 whole entry partner): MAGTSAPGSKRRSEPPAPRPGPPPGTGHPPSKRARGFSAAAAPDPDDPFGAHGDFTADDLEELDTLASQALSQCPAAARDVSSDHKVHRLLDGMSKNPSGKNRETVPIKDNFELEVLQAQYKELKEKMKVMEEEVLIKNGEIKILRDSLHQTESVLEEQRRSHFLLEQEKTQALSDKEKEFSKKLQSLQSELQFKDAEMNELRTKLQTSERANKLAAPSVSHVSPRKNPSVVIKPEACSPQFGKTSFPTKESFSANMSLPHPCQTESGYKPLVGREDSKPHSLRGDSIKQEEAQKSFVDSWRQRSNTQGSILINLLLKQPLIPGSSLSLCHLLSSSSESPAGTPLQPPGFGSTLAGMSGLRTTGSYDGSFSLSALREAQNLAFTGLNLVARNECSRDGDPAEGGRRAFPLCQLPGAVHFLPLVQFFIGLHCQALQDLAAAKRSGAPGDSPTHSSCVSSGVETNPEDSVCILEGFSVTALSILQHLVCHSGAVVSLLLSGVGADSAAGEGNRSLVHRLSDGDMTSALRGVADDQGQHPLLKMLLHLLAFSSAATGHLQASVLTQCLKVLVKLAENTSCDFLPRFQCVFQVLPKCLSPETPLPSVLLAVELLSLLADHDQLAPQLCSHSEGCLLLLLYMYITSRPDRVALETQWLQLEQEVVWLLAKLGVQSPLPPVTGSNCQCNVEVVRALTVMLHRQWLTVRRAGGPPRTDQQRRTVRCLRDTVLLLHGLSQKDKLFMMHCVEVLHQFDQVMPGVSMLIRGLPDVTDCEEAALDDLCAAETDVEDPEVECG
Experimental: The mixture was centrifuged at 1000 rpm for 1 minute, and reacted at room temperature protected from light for 30 minutes. Then 5 μL of EDTA stop solution (250 mM) was added to stop the reaction.

[2] = test system: human colon cancer LoVo cell; assay: MTT proliferation assay, LoVo; type: cell-based; conditions: Homo sapiens, LoVo, 96 h, read-out: IC50 (nM), proliferation of LoVo cell
Experimental: (§1) The cells were seeded into 96-well cell culture plate with a density of 2000/4000 cells per well and incubated overnight in a 5% CO2 incubator at 37° C. […] 5 μL diluent of each concentration was added to 120 μL of medium (25 times diluted) and mixed by shaking. The overnight cell plates were taken and the culture medium was removed, 195 μL of fresh medium was added to each well, and 5 μL of diluted medium containing the corresponding concentration of the test compound was added respectively (the final concentration of DMSO is 1%), and the culture plate was then placed in a 5% CO2 incubator at 37° C. for 4 days. After removing the original solution, 100 SEL of fresh serum-free DMEM medium containing MTT (0.5 mg/mL) was added to each well, the culture was continued. […] Cell viability (%)=(ODcompound−ODbackground)/ODDMSO−ODbackground)×100. GraphPad Prism 6.0 was used to analyze the data. The inhibitory activity of compounds on cell proliferation was plotted based on cell viability and the logarithm of compound concentration. The IC5.0 value was fitted by a sigmoidal dose response curve equation Y=100/(1+10^(LogC-LogIC50)), wherein C was the concentration of compound.

[3] = test system: human lung cancer NCI-H460 cell; assay: MTT proliferation assay, NCI-H460; type: cell-based; conditions: NCI-H460, 96 h, read-out: IC50 (nM), proliferation of NCI-H460 cell
Experimental: The cells were digested by trypsinase and centrifuged at 800 rpm for 5 minutes, the supernatant was discarded, and the residual was resuspended with fresh medium […]) and counted.
as §1, with “μL” for “SEL”, “(%)=(ODcompound−ODbackground)/(ODDMSO−ODbackground)×100.” for “(%)=(ODcompound−ODbackground)/ODDMSO−ODbackground)×100.”, “IC50” for “IC5.0”, “[…],” for “Y=100/(1+10^(LogC-LogIC50)),”

| Structure (SMILES) | AUC(0-inf) [1] [ng·h/mL] | AUC(0-t) [1] [ng·h/mL] | Cmax [1] [ng/mL] | half-life [1] [h] | IC50 (ATR/ATRIP enzyme) [nM] | IC50 ([2]; MTT, 4 days) [nM] | IC50 ([3]; MTT, 4 days) [nM] | IC50 [2] [nM] | IC50 [3] [nM] |
| --- | --- | --- | --- | --- | --- | --- | --- | --- | --- |
| C=C(C)c1nc(-c2ccn[nH]2)n2nc(N3CCOC[C@H]3C)cc(-c3ccnn3C)c12 [Example 25, (R)-3-Methyl-4-(4-(1-Methyl-1H-pyrazol-5-yl)-5-(prop-1-en-2-yl)-7-(1H-pyrazol-5-yl)imidazo[1,5-b]pyridazin-2-yl)morpholine] | 70200 | 70000 | 16900 | 2.56 | 1 | 10.7 | 8.64 | – | – |
| Cc1nc(-c2ccn[nH]2)n2nc(N3CCOC[C@H]3C)cc(-c3ccccc3F)c12 [Example 14, (R)-4-(4-(2-fluorophenyl)-5-methyl-7-(1H-pyrazol-5-yl)imidazo[1,5-b]pyridazin-2-yl)-3-methylmorpholine] | 78700 | 77300 | 10800 | 3.75 | 10 | 26.2 | 32 | – | – |
| CCc1nc(-c2ccn[nH]2)n2nc(N3CCOC[C@H]3C)cc(-c3ccnn3C)c12 [Example 24, (R)-4-(5-ethyl-4-(1-methyl-1H-pyrazol-5-yl)-7-(1H-pyrazol-5-yl)imidazo[1,5-b]pyridazin-2-yl)-3-methylmorpholine] | 171000 | 162000 | 15400 | 5.4 | 2 | – | – | 38.8 | 28 |

The next lines start with the values.

| AUC(0-inf) [1] [ng·h/mL] | AUC(0-t) [1] [ng·h/mL] | Cmax [1] [ng/mL] | half-life [1] [h] | IC50 (ATR/ATRIP enzyme) [nM] | IC50 ([2]; MTT, 4 days) [nM] | IC50 ([3]; MTT, 4 days) [nM] | IC50 [2] [nM] | IC50 [3] [nM] | Structure (SMILES) |
| --- | --- | --- | --- | --- | --- | --- | --- | --- | --- |
| 42900 | 42800 | 7340 | 2.65 | 6 | 22.4 | 24.1 | – | – | C[C@@H]1COCCN1c1cc(-c2ccnn2C)c2c(Cl)nc(-c3ccn[nH]3)n2n1 [Example 21, (R)-4-(5-chloro-4-(1-methyl-1H-pyrazol-5-yl)-7-(1H-pyrazol-5-yl)imidazo[1,5-b]pyridazin-2-yl)-3-methylmorpholine] |
| 44000 | 43400 | 9010 | 3.2 | 3 | 26.9 | 13 | – | – | Cc1ncccc1-c1cc(N2CCOC[C@H]2C)nn2c(-c3ccn[nH]3)nc(C)c12 [Example 4, (R)-3-methyl-4-(5-methyl-4-(2-methylpyridin-3-yl)-7-(1H-pyrazol-5-yl)imidazo[1,5-b]pyridazin-2-yl)morpholine] |
